Paper PMC9663854, “AadA36, a novel chromosomal aminoglycoside nucleotidyltransferase from a clinical isolate of Providencia stuartii” (Frontiers in Microbiology, 2022)

Tested on: T1, AadA36
T1 construct: N-terminal His-tag removed with thrombin
Experiment: coupled NADPH assay at […] nm (UDP-glucose pyrophosphorylase, phosphoglucomutase, glucose-6-phosphate dehydrogenase), Michaelis-Menten fit
Format: biochemical, Providencia stuartii
Conditions: 50 mM HEPES pH 7.5, 10 mM MgCl2, 1 mM ATP, 0.2 mM DTT, substrate 5-150 μM

SMILES | Km
CN[C@@H]1[C@H](O)[C@H](NC)[C@H]2O[C@@]3(O)C(=O)C[C@@H](C)O[C@H]3O[C@@H]2[C@H]1O [spectinomycin] | 49.1 ± 12.8 µM
[H]/N=C(/N)N[C@H]1[C@H](O)[C@@H](O)[C@H](O[C@@H]2O[C@@H](C)[C@](O)(C=O)[C@H]2O[C@@H]2O[C@@H](CO)[C@H](O)[C@@H](O)[C@@H]2NC)[C@@H](N/C(N)=N\[H])[C@@H]1O [streptomycin] | 59.5 ± 14.1 µM
